{"source": "patent US12318369B2", "about": "“Analgesic and antipruritic pharmacertical composition and application thereof” (KEVICI (SHANGHAI) PHARMACEUTICAL CO., LTD., priority 2020, dated 2025)", "key": {"[1]": {"assay": "Side effects observed in SNI mice after intraperitoneal injection"}, "[2]": {"tested_on": "SNI-induced neuropathic pain C57/BJ6 mice", "assay": "SNI-induced neuropathic pain mouse model, mechanical pain threshold (PWT) by Von Frey", "format": "in vivo", "method": "C57/BJ6 mice aged 5-6 weeks were purchased from Shanghai SLAC Laboratory Animal Co., Ltd and fed for 6 months. After that, the mice were placed in a transparent plexiglass chamber on an iron support. 30 minutes later, the baseline mechanical threshold (paw withdrawal threshold, PWT) of the mice was detected by Von Frey (DanMicGlobal, CA, USA). The average threshold of the mice was 1.54+0.07 g (see FIG. 1). The spared nerve injury (SNI)-induced neuropathic pain C57/BJ6 mouse model was established according to Pertin, M et al (Pertin, M., Gosselin, RD., Decosterd, I. (2012). The Spared Nerve Injury Model of Neuropathic Pain. In: Luo, Z. (eds) Pain Research. Methods in Molecular Biology, vol 851. Humana Press). The SNI-induced neuropathic pain mice were measured for the mechanical pain threshold using Von Frey respectively at 2 weeks, 4 weeks and 6 weeks post operation.\nThe mechanical pain threshold of mice was tested 1 hour after injection. […] Among them, the mice with poor response (ΔPWT≤ 0.2 g) accounted for 10% (2/20) of all tested mice.\n20 μg/kg GNE-0439 and 90 μg/kg PF-04885614 were intraperitoneally injected into SNI mice at 6 weeks post operation. One hour later, the mechanical threshold of mice was measured using Von Frey."}, "[3]": {"tested_on": "subjects with painful diabetic peripheral neuropathy", "settings": "randomised, placebo-controlled, double-blind clinical study; cited from earlier work"}, "[4]": {"tested_on": "neuropathic pain patients", "settings": "clinical use; cited from earlier work"}}, "note": "Entries after “also recorded” stand apart in the source; their conditions may differ.", "data": [{"smiles": "COc1ccc(Cl)c(-c2ccc(NC(=O)c3ccnn3C)nc2N)c1", "note": "[PF-04531083]", "values": [{"measurement": "side effects", "setting": "[1]; 10 mg/kg PF-04531083 (effective dose)", "result": "obvious side effects such as sedation and weight loss; also recorded: significant side effects such as sedation and weight loss"}]}, {"smiles": "Nc1n[nH]cc1-c1cc(Cl)ccc1Oc1cc(F)c(S(=O)(=O)Nc2cscn2)cc1Cl", "note": "[PF-05089771]", "values": [{"measurement": "mice with poor response (ΔPWT≤0.2 g)", "setting": "[2]; 2 mg/kg i.p., 2 weeks post operation (2/20)", "result": 10, "unit": "%"}, {"measurement": "mice with poor response (ΔPWT≤0.2 g)", "setting": "[2]; 2 mg/kg i.p., 4 weeks post operation (10/24)", "result": 41.7, "unit": "%"}, {"measurement": "mice with poor response (ΔPWT≤0.2 g)", "setting": "[2]; 2 mg/kg i.p., 6 weeks post operation (16/28)", "result": 57.1, "unit": "%"}, {"measurement": "increase of mechanical pain threshold (ΔPWT)", "setting": "[2]; 2 mg/kg i.p., SNI mice 2 weeks post operation, 1 hour after injection", "result": "0.77 ± 0.10", "unit": "g"}, {"measurement": "increase of mechanical pain threshold (ΔPWT)", "setting": "[2]; 2 mg/kg i.p., SNI mice 4 weeks post operation, 1 hour after injection", "result": "0.39 ± 0.07", "unit": "g"}, {"measurement": "increase of mechanical pain threshold (ΔPWT)", "setting": "[2]; 2 mg/kg i.p., SNI mice 6 weeks post operation, 1 hour after injection", "result": "0.17 ± 0.03", "unit": "g"}, {"measurement": "fraction of total mice that poorly responded (ΔPWT≤0.2 g)", "setting": "[2]; 2 mg/kg, 6 weeks post SNI operation (8/12, Table 1)", "result": "2/3"}, {"measurement": "efficacy in treatment of diabetic neuropathic pain", "setting": "[3]", "result": "poor efficacy"}]}, {"smiles": "NCC1(CC(=O)O)CCCCC1", "note": "[Gabapentin]", "values": [{"measurement": "effect on mechanical pain of SNI mice", "setting": "[2]; 100 mg/kg i.p., 6 weeks post operation", "result": "relieve effect"}, {"measurement": "accompanying side effects in patients", "setting": "[4]", "result": "sedation effects (such as drowsiness, fatigue and dizziness)"}, {"measurement": "side effects", "setting": "[1]; 100 mg/kg Gabapentin", "result": "sedative side effects"}]}, {"smiles": "CCCC1CCC(c2ccc(C(=O)N[C@H](C(=O)O)C(C)C)cc2)CC1", "note": "(stereo partly shown) [GNE-0439]", "values": [{"measurement": "ΔPWT", "setting": "[2]; single administration, 20 μg/kg i.p., SNI mice 6 weeks post operation, one hour after injection", "result": "0.77 ± 0.14", "unit": "g"}]}, {"smiles": "CC(C)(N)c1ncc(-c2ccc(OC(F)(F)F)cc2)[nH]1", "note": "[PF-04885614]", "values": [{"measurement": "mice with poor response (ΔPWT≤0.2 g)", "setting": "[2]; 45 μg/kg i.p., 2 weeks post operation (2/18)", "result": 11.1, "unit": "%"}, {"measurement": "threshold increase compared with the control group", "setting": "[2]; 45 μg/kg i.p., 4 weeks post operation", "result": "no statistically significant difference"}, {"measurement": "mice with poor response (ΔPWT≤0.2 g)", "setting": "[2]; 45 μg/kg i.p., 4 weeks post operation (10/19)", "result": 52.6, "unit": "%"}, {"measurement": "mice with poor response (ΔPWT≤0.2 g)", "setting": "[2]; 45 μg/kg i.p., 6 weeks post operation (13/17)", "result": 76.5, "unit": "%"}, {"measurement": "increase of mechanical pain threshold (ΔPWT)", "setting": "[2]; 45 μg/kg i.p., SNI mice 2 weeks post operation", "result": "0.86 ± 0.14", "unit": "g"}, {"measurement": "increase of mechanical pain threshold (ΔPWT)", "setting": "[2]; 45 μg/kg i.p., SNI mice 4 weeks post operation", "result": "0.21 ± 0.04", "unit": "g"}, {"measurement": "increase of mechanical pain threshold (ΔPWT)", "setting": "[2]; 45 μg/kg i.p., SNI mice 6 weeks post operation", "result": "0.10 ± 0.04", "unit": "g"}, {"measurement": "fraction of PF-05089771 poor responders that well responded", "setting": "[2]; 90 μg/kg PF-04885614, 6 weeks post SNI operation", "result": "half"}]}, {"smiles": "CC(C)C[C@H](CN)CC(=O)O", "note": "[Pregabalin]", "values": [{"measurement": "accompanying side effects in patients", "setting": "[4]", "result": "sedation effects (such as drowsiness, fatigue and dizziness)"}]}]}
